This is an account of results in PubChem BioAssay AID1259407 (Chemical Carcinogenesis Research Information System (CCRIS), 2018).

Active and inactive are the calls of the source. The rule behind the calls is not given here.

This data set deals with CCRIS mutagenicity, Ames/micronucleus/aberration tests. The data set can be described thus: CCRIS mutagenicity studies.
The mark [1] stands for this setting: Test System: AMES SALMONELLA TYPHIMURIUM, Strain/Indicator: TA97, Metabolic Activation: NONE, Method: PREINCUBATION
[2] abbreviates: Test System: AMES SALMONELLA TYPHIMURIUM, Strain/Indicator: TA98, Metabolic Activation: HAMSTER, LIVER, S-9, AROCLOR 1254 (10%), Method: PREINCUBATION
The mark [3] stands for this setting: Test System: AMES SALMONELLA TYPHIMURIUM, Strain/Indicator: TA98, Metabolic Activation: NONE, Method: PREINCUBATION
Where [4] appears, read: Test System: AMES SALMONELLA TYPHIMURIUM, Strain/Indicator: TA98, Metabolic Activation: RAT, LIVER, S-9, AROCLOR 1254 (10%), Method: PREINCUBATION
[5] abbreviates: Test System: AMES SALMONELLA TYPHIMURIUM, Strain/Indicator: TA100, Metabolic Activation: HAMSTER, LIVER, S-9, AROCLOR 1254 (10%), Method: PREINCUBATION
Setting [6] is: Test System: AMES SALMONELLA TYPHIMURIUM, Strain/Indicator: TA100, Metabolic Activation: NONE, Method: PREINCUBATION
The mark [7] stands for this setting: Test System: AMES SALMONELLA TYPHIMURIUM, Strain/Indicator: TA100, Metabolic Activation: RAT, LIVER, S-9, AROCLOR 1254 (10%), Method: PREINCUBATION
Where [8] appears, read: Test System: AMES SALMONELLA TYPHIMURIUM, Strain/Indicator: TA1535, Metabolic Activation: HAMSTER, LIVER, S-9, AROCLOR 1254 (10%), Method: PREINCUBATION
[9] abbreviates: Test System: AMES SALMONELLA TYPHIMURIUM, Strain/Indicator: TA1535, Metabolic Activation: NONE, Method: PREINCUBATION
[10] abbreviates: Test System: AMES SALMONELLA TYPHIMURIUM, Strain/Indicator: TA1535, Metabolic Activation: RAT, LIVER, S-9, AROCLOR 1254 (10%), Method: PREINCUBATION
Where [11] appears, read: Test System: AMES SALMONELLA TYPHIMURIUM, Strain/Indicator: TA100, Metabolic Activation: NONE, Method: STANDARD PLATE.
[12] abbreviates: Test System: AMES SALMONELLA TYPHIMURIUM, Strain/Indicator: TA98, Metabolic Activation: NONE, Method: STANDARD PLATE.
[13] abbreviates: Test System: AMES SALMONELLA TYPHIMURIUM, Strain/Indicator: TA98, Metabolic Activation: RAT, LIVER, S-9, AROCLOR 1254, Method: STANDARD PLATE.
[14] abbreviates: Test System: AMES SALMONELLA TYPHIMURIUM, Strain/Indicator: TA102, Metabolic Activation: NONE, Method: PREINCUBATION
Setting [15] is: Test System: AMES SALMONELLA TYPHIMURIUM, Strain/Indicator: TA97A, Metabolic Activation: NONE, Method: PREINCUBATION

On to `CC(=O)NBr`, for which the mutagenic call (Test System: AMES SALMONELLA TYPHIMURIUM, Strain/Indicator: TA97, Metabolic Activation: HAMSTER, LIVER, S-9, AROCLOR 1254 (10%), Method: PREINCUBATION) is “inactive; negative”; the mutagenic call (Test System: AMES SALMONELLA TYPHIMURIUM, Strain/Indicator: TA97, Metabolic Activation: HAMSTER, LIVER, S-9, AROCLOR 1254 (30%), Method: PREINCUBATION) was “inactive; negative”; the mutagenic call under setting [1] is “inactive; negative”; the mutagenic call (Test System: AMES SALMONELLA TYPHIMURIUM, Strain/Indicator: TA97, Metabolic Activation: RAT, LIVER, S-9, AROCLOR 1254 (10%), Method: PREINCUBATION) is “inactive; negative”; the mutagenic call (Test System: AMES SALMONELLA TYPHIMURIUM, Strain/Indicator: TA97, Metabolic Activation: RAT, LIVER, S-9, AROCLOR 1254 (30%), Method: PREINCUBATION) is “inactive; negative”; the mutagenic call under setting [2] was “inactive; negative”. For the same molecule, the mutagenic call reads like this: (Test System: AMES SALMONELLA TYPHIMURIUM, Strain/Indicator: TA98, Metabolic Activation: HAMSTER, LIVER, S-9, AROCLOR 1254 (30%), Method: PREINCUBATION) “inactive; negative”; under setting [3], “inactive; negative”; under setting [4], “inactive; negative”; (Test System: AMES SALMONELLA TYPHIMURIUM, Strain/Indicator: TA98, Metabolic Activation: RAT, LIVER, S-9, AROCLOR 1254 (30%), Method: PREINCUBATION) “inactive; negative”; under setting [5], “inactive; negative”; (Test System: AMES SALMONELLA TYPHIMURIUM, Strain/Indicator: TA100, Metabolic Activation: HAMSTER, LIVER, S-9, AROCLOR 1254 (30%), Method: PREINCUBATION) “inactive; negative”. The mutagenic call is, setting by setting: under setting [6], “inactive; negative”; under setting [7], “inactive; negative”; (Test System: AMES SALMONELLA TYPHIMURIUM, Strain/Indicator: TA100, Metabolic Activation: RAT, LIVER, S-9, AROCLOR 1254 (30%), Method: PREINCUBATION) “inactive; negative”; under setting [8], “inactive; negative”; (Test System: AMES SALMONELLA TYPHIMURIUM, Strain/Indicator: TA1535, Metabolic Activation: HAMSTER, LIVER, S-9, AROCLOR 1254 (30%), Method: PREINCUBATION) “inactive; negative”; under setting [9], “inactive; negative”. For the same molecule, the mutagenic call runs as follows: under setting [10], “inactive; negative”; (Test System: AMES SALMONELLA TYPHIMURIUM, Strain/Indicator: TA1535, Metabolic Activation: RAT, LIVER, S-9, AROCLOR 1254 (30%), Method: PREINCUBATION) “inactive; negative”.
Regarding `Cc1ccc2nc3c(c4c(c5ccccc53)O4)c(C)c2c1`, the mutagenic call reads like this: under setting [11], “active; positive”; (Test System: AMES SALMONELLA TYPHIMURIUM, Strain/Indicator: TA100, Metabolic Activation: RAT, LIVER, S-9, AROCLOR 1254, Method: STANDARD PLATE) “inactive; negative”.
Regarding `CC1=C(N=O)CNc2c1nc1c(C)cccn21`, the mutagenic call runs as follows: under setting [12], “active; positive”; (Test System: AMES SALMONELLA TYPHIMURIUM, Strain/Indicator: TA98, Metabolic Activation: RAT, LIVER, CYTOSOL, AROCLOR 1254, Method: STANDARD PLATE) “active; positive”; (Test System: AMES SALMONELLA TYPHIMURIUM, Strain/Indicator: TA98, Metabolic Activation: RAT, LIVER, MICROSOMES, AROCLOR 1254, Method: STANDARD PLATE) “active; positive”; under setting [13], “active; positive”.
Regarding `COc1cc(OC)c(OC)cc1C=O`, the mutagenic call is “inactive; negative” under setting [2]; “inactive; negative” under setting [3]; “inactive; negative” under setting [4]; “inactive; negative” under setting [5]; “inactive; negative” under setting [6]; “inactive; negative” (Test System: AMES SALMONELLA TYPHIMURIUM, Strain/Indicator: TA100, Metabolic Activation: RAT LIVER S-9, AROCLOR 1254, Method: PREINCUBATION). The mutagenic call by setting is: under setting [7], “inactive; negative”; under setting [14], “inactive; negative”; (Test System: AMES SALMONELLA TYPHIMURIUM, Strain/Indicator: TA102, Metabolic Activation: RAT LIVER S-9, AROCLOR 1254, Method: PREINCUBATION) “inactive; negative”; (Test System: AMES SALMONELLA TYPHIMURIUM, Strain/Indicator: TA104, Metabolic Activation: NONE, Method: PREINCUBATION) “inactive; negative”; (Test System: AMES SALMONELLA TYPHIMURIUM, Strain/Indicator: TA104, Metabolic Activation: RAT LIVER S-9, AROCLOR 1254, Method: PREINCUBATION) “inactive; negative”; under setting [8], “inactive; negative”. In addition, the mutagenic call reads like this: under setting [9], “inactive; negative”; under setting [10], “inactive; negative”; (Test System: AMES SALMONELLA TYPHIMURIUM, Strain/Indicator: TA1537, Metabolic Activation: HAMSTER, LIVER, S-9, AROCLOR 1254 (10%), Method: PREINCUBATION) “inactive; negative”; (Test System: AMES SALMONELLA TYPHIMURIUM, Strain/Indicator: TA1537, Metabolic Activation: NONE, Method: PREINCUBATION) “inactive; negative”; (Test System: AMES SALMONELLA TYPHIMURIUM, Strain/Indicator: TA1537, Metabolic Activation: RAT, LIVER, S-9, AROCLOR 1254 (10%), Method: PREINCUBATION) “inactive; negative”; (Test System: MOUSE LYMPHOMA, Strain/Indicator: L5178Y (TK+/TK-), Metabolic Activation: RAT, LIVER, S-9, AROCLOR 1254, Method: SUSPENSION/PLATE) “active; positive. reevaluation of results: equivocal”. Besides, the mutagenic call (Test System: Mouse lymphoma, Strain/Indicator: L5178Y (tk+/tk-), Metabolic Activation: None, Method: Suspension/plate) is “inactive; negative”.
Consider `CNC(=O)Oc1ccc(-c2ccccc2)cc1`, for which the mutagenic call by setting is: under setting [13], “inactive; negative”; (Test System: AMES SALMONELLA TYPHIMURIUM, Strain/Indicator: TA1535, Metabolic Activation: RAT, LIVER, S-9, AROCLOR 1254, Method: STANDARD PLATE) “active; positive”.
Turning to `CCc1ccc(NC(=O)c2csc([N+](=O)[O-])c2)cc1`, the mutagenic call under setting [12] was “active; positive” and the mutagenic call under setting [11] is “active; positive”.
Regarding `CC(C)(CO)[C@@H](O)C(=O)NCCC(=O)O`, the mutagenic call runs as follows: under setting [1], “inactive; negative”; (Test System: AMES SALMONELLA TYPHIMURIUM, Strain/Indicator: TA97, Metabolic Activation: RAT, LIVER, S-9, AROCLOR 1254, Method: PREINCUBATION) “inactive; negative”; under setting [15], “inactive; negative”; (Test System: AMES SALMONELLA TYPHIMURIUM, Strain/Indicator: TA97A, Metabolic Activation: RAT, LIVER, S-9, AROCLOR 1254, Method: PREINCUBATION) “inactive; negative”; under setting [14], “inactive; negative”; (Test System: AMES SALMONELLA TYPHIMURIUM, Strain/Indicator: TA102, Metabolic Activation: RAT, LIVER, S-9, AROCLOR 1254, Method: PREINCUBATION) “inactive; negative”.
Consider `CC(/C=C(/C#N)c1ccc(F)cc1)C(c1ccccc1)C(C#N)c1ccc(F)cc1` (centres undefined), for which the mutagenic call under setting [11] is “inactive; negative”.
Regarding `OC1c2cccc3c2C2(OC2C1O)c1ccc2ccccc2c1-3` (centres undefined), the mutagenic call is, setting by setting: under setting [15], “active; positive”; under setting [3], “active; positive”; under setting [6], “active; positive”.
